Data published in article PMC11242892, “Ceanothanes Derivatives as Peripheric Anionic Site and Catalytic Active Site Inhibitors of Acetylcholinesterase: Insights for Future Drug Design” (International Journal of Molecular Sciences, 2024).
Several values for one entry are separate records, joined by “and”; a condition that tells them apart may be missing. Equal entries are not always repeated. Entries after “also recorded” stand apart in the source; their conditions may differ.

Legend:
[1] = biological target: T1, acetylcholinesterase (AChE from Electrophorus electricus) (Electrophorus electricus, UniProt O42275); assay: Kinetic characterization of AChE inhibition (Lineweaver–Burk); format: biochemical; settings: for Vmax: Lineweaver–Burk; for α: alpha calculated from Lineweaver–Burk plots; for type of inhibition: from Lineweaver–Burk plots and alpha
T1 construct: purchased Sigma-Aldrich
Procedure: To investigate the inhibition mechanism of the tested compounds on AChE, a kinetic analysis was performed. The experiments were carried out using a combination of four substrate concentrations and three inhibitor concentrations with the aim to obtain a double reciprocal plot (Lineweaver–Burk), in which each point is the mean of three different experiments. A parallel control with no inhibitor in the mixture allowed adjusted activities to be measured at various times.

PAS of EeAChE = biological target: T2, PAS of EeAChE (Electrophorus electricus, UniProt O42275); assay: Propidium iodide displacement assay; format: binding; settings: five units EeAChE, 1 µM propidium iodide solution, triplicate
T2 construct: purchased Sigma-Aldrich
Procedure: By interacting with soluble β-amyloid peptides and facilitating their aggregation, the AChE peripheral anionic site (PAS) at the gorge’s edge contributes to AChE’s pro-aggregation capacity toward β-amyloid. […] The potential ability of compounds to bind PAS and thus block the pro-aggregation activity of AChE is possible to evaluate through competitive propidium displacement from the PAS of AChE.
The percentage inhibition was calculated by the following expression: 100 − (IFi/IF0 × 100), where IF1 and IF0 correspond to fluorescence intensities with and without the test compound, respectively. Each assay was carried out in triplicate independent experiments.

[2] = biological target: T1, acetylcholinesterase (AChE from Electrophorus electricus); assay: Ellman assay, AChE inhibitory activity; format: biochemical; settings: IC50 ± SEM, Ellman's assay
Procedure: The Ellman assay was used to test acetylcholinesterase (AChE from Electrophorus electricus) inhibition activity. A mixture of the DTNB (125 µL), enzyme solution (25 µL), and compound solution (25 µL) was prepared and incubated at room temperature for 20 min. All the assays were under 0.1 M KH2PO4/K2HPO4 buffer, pH 8.0. The substrate was added to start the enzymatic reaction. […] All measurements were performed fivefold as triplicate. The compounds were assayed in a dilution interval of 15 to 500 µg/mL.

T1 sequence (O42275 24-633): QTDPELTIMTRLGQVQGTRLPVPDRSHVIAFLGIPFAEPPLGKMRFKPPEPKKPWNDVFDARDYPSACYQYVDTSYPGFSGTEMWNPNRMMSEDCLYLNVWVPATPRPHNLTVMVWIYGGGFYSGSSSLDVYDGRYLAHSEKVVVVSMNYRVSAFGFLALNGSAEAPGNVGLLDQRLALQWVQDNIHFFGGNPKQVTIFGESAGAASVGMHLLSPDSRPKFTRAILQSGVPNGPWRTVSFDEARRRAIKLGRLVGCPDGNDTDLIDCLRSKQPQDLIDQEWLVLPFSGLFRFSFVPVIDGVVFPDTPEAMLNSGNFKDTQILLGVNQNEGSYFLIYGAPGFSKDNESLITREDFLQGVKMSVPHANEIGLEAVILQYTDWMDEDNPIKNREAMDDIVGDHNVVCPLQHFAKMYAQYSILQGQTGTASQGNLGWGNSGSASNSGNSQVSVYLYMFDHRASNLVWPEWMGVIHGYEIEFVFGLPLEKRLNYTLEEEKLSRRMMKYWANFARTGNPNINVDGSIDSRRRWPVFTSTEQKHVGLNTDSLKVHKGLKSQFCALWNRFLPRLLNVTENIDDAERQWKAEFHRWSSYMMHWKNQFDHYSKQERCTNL
T2 sequence (O42275 24-633): as above

SMILES	Vmax [1]	α [1]	type of inhibition [1]	% Displacement of Propidium Iodide (Mean ± SEM) (PAS of EeAChE)	IC50 ([2]; pH 8.0, average of triplicate)	IC50 ([2]; pH 8.0, triplicate)
C=C(C)[C@@H]1CC[C@]2(C(=O)O)CC[C@]3(C)[C@H](CC[C@@H]4[C@@]5(C)[C@@H](C(=O)O)[C@H](OCCCCBr)C(C)(C)[C@@H]5CC[C@]43C)[C@@H]12 [Compound 6, 3-(4-Bromobutoxy)-ceanothic Acid]	0.0086	0.98	noncompetitive inhibitors	31.51 ± 1.38%	8.4 µM and 8 µM	8.4 µM
C=C(C)[C@@H]1CC[C@]2(C(=O)O)CC[C@]3(C)[C@H](CC[C@@H]4[C@@]5(C)[C@@H](C(=O)O)C(=O)C(C)(C)[C@@H]5CC[C@]43C)[C@@H]12 [Compound 2, 3-oxo-Ceanothic Acid]	0.0032	1.01	noncompetitive inhibitors	28.71 ± 0.99%	5.28 µM and 5.3 µM	5.28 µM
C=C(C)[C@@H]1CC[C@]2(C(=O)O)CC[C@]3(C)[C@H](CC[C@@H]4[C@@]5(C)[C@@H](C(=O)O)[C@H](O)C(C)(C)[C@@H]5CC[C@]43C)[C@@H]12 [Compound 1, Ceanothic acid]	–	–	–	24.24 ± 0.32%	47.4 µM and 47 µM	47.4 µM
C=C(C)[C@@H]1CC[C@]2(C(=O)O)CC[C@]3(C)[C@H](CC[C@@H]4[C@@]5(C)[C@@H](C(=O)O)[C@H](OC(=O)c6ccco6)C(C)(C)[C@@H]5CC[C@]43C)[C@@H]12 [Compound 7, 3-O-Furoyl-ceanothic Acid]	0.0205	10.39	mixed inhibitors; also recorded: mixed-competitive-type inhibitor	28.50 ± 2.55%	17.9 µM and 18 µM	17.9 µM
C=C(C)[C@@H]1CC[C@]2(C(=O)OC)CC[C@]3(C)[C@H](CC[C@@H]4[C@@]5(C)[C@@H](C(=O)OC)[C@H](O)C(C)(C)[C@@H]5CC[C@]43C)[C@@H]12 [Compound 3, Ceanothic 2, 28-Dimethyl Ester]	0.0133	2.98	mixed inhibitors	27.01 ± 0.59%	14.4 µM and 14 µM	14.4 µM
